# Results published in US20260125357A1, “LACTATE ENHANCING COMPOUNDS AND USES THEREOF” (GLIAPHARM SA, priority 2022, published 2026).
# Key:
# [1] = tested on: neurons in astrocyte-neuron co-culture; experiment: MTT mitochondrial activity in neurons from astrocyte-neuron co-cultures; assay type: cell-based, mouse; conditions: 10 μM, 2 hours
# Protocol: Primary mouse neuronal cultures were obtained from 18-day OF1 mouse embryos (Charles River Laboratories). Briefly, cortices were isolated and minced in small pieces under a dissecting microscope. The cells were incubated for 30 min at 37° C. in a solution containing 20 U/ml papain, 1 mM L-cysteine and 10 kU/ml DNase I. After dissociation, papain activity was stopped by the addition of fetal calf serum (FCS). Single-cell suspension was then obtained by mechanical dissociation, which consisted in cells trituration in a Neurobasal+B-27+Glutamax medium. The cells were seeded at an average density of ˜1.5×10^5 cells/cm^2 on poly-D-lysine coated 12-well culture plates and grown in Neurobasal medium supplemented with B-27 and Glutamax at 37° C. in a humidified atmosphere containing 5% CO2/95% air. Neurons were used at DIV10. […]
# Neuron pure culture or astrocyte-neuron co-cultures were treated for 2 hours with compound (2) at 10 μM in a solution composed of Neurobasal complemented with B-27 and Glutamax, as well as 0.25 mg/ml thiazol blue tetrazolium bromide (MTT). […] After stimulation, empty coverslips (neuron pure cultures) or astrocytes on coverslips (astrocyte-neuron co-cultures) were separated from neurons, medium was removed and the amount of reduced MTT, i.e formazan, solubilized in DMSO (50 μl/well) was determined using a spectrophotometer (absorbance of 570 nm).
# [2] = tested on: human iPSC-derived astrocytes; experiment: Release of lactate from human iPSC-derived astrocytes; assay type: cell-based; conditions: treated for 1.5 hours
# Protocol: Secretion of L-lactate was measured in the extracellular medium of 96-well plated astrocytes after 90 min stimulation (at 37° C., in 5% CO2/95% air conditions) with Vehicle (DMSO), the compounds of the invention (100 nM to 100 μM) or positive control. […] Stimulation medium was composed of D5030 medium complemented with 5 mM D-glucose and 44 mM sodium bicarbonate, pH 7.2. To quantify lactate concentrations in the extracellular medium, 200 μl of a 0.2M Glycine-semicarbazide buffer (pH 10) containing 3 mM NAD and 14 U/ml LDH was added to each well of a 96-well plate containing 30 μl aliquots of extracellular medium. Samples were incubated at 37° C. for 1 h. Fluorescence intensity (340 nm excitation/450 nm emission), which represents the amount of NADH produced, was measured, and lactate concentration values were determined relative to a standard curve of L-lactate concentrations.
# Human iPSC-derived astrocytes were purchased from NCardia (NCyte Astrocytes) and were plated at a density of ˜10′000 cells/cm^2 in 96-well or 12-well plates, according to the manufacturer's instructions and using the recommended media. Experiments were performed at 7 days in vitro. Cells were treated for 1.5 hours with compound (2). Uptake of 2-DG and release of lactate were quantified as described previously.
# C57Bl/6J wild-type mice = experiment: Lactate and glucose biosensors, cerebral extracellular levels in freely moving mice; assay type: in vivo, mouse; conditions: per os, doses 10 to 30 mg/kg, 3 hours, AUC ratio vs vehicle
# Protocol: All experiments were carried out in strict accordance with the Swiss Federal Guidelines for Animal Experimentation and were approved by the Cantonal Veterinary Office for Animal Experimentation (Canton of Geneva, Switzerland). Adult male C57Bl/6J wild-type mice weighting 18-28 g (8 to 12 weeks of age) were used (Charles River Laboratories). Animals were housed in groups of 3-5 in polypropylene cages (30×40×15 cm) with wire mesh top in a temperature (22±2° C.) and humidity (55±15%) controlled environment on a 12-hour light cycle (07.00-19.00 h lights on), except after surgeries when animal were housed individually. The samples (Vehicle or compounds of the invention) were administered per os (gavage) in a solution made of water supplemented with 0.4% hydroxypropyl methylcellulose (HPMC) Methocel 4 KM (w/v) and 0.25% Tween-20 (v/v), as previously described (Thackaberry et al., 2010, Toxicol Sci., 117(2):485-92). Concentrations of the compounds tested ranged from 3 to 30 mg/kg.
# Cerebral extracellular levels of L-lactate and D-glucose were monitored in vivo using lactate and glucose biosensors (Pinnacle Technology), respectively, according to the manufacturer's instructions. Cannulae were surgically implanted in the medial prefrontal cortices (coordinates: −1.0 mm (to bregma), lateral+/−1.0 mm (to mideline), ventral −1.0 mm (to dura))) of isoflurane-anesthetized mice 5 to 7 days prior experiment. After surgery, mice were monitored closely and received analgesic treatment for at least 4 days. After mice had fully recovered from surgery, compounds of the invention of vehicle were administered per os as previously described and cerebral levels of extracellular lactate and glucose were dynamically recorded for 6 hours using biosensors. Mice were administered vehicle alone first, followed 3 hours later by vehicle or Compounds of the Invention. Concentrations of cerebral extracellular lactate and glucose were calculated from the biosensor electric signals using post-calibration values. […] Area Under the Curve (AUC) of lactate and glucose concentration curves were calculated using Graphad Prism and the ratio of AUC after drug over Vehicle administration was calculated. Extracellular concentrations of lactate and glucose were measured in real time in freely moving animals for 3 hours after administration of Vehicle or compounds (1) to (4) at doses ranging from 10 to 30 mg/kg (FIG. 5).
# GLUT1-DS transgenic mice = experiment: Rotarod motor function in GLUT1-DS transgenic mice; assay type: in vivo, mouse; conditions: single administration 10 mg/kg, 20 min before rotarod
# From the text: Heterozygous transgenic mice on 129/SvJ genetic background in which glucose transporter 1 (GLUT1) has been knocked down were used (GLUT1(+/−)) (Wang et al., 2016, Human Molecular Genetics, 15(7)). GLUT1-deficiency syndrome (GLUT1-DS) is a prototypic hypometabolic diseases caused by the mutation of GLUT1 and decreased levels of glucose and lactate in the brain (Tang et al., 2019, Annals of Clinical and Translational Neurology 6(9)). Mating colonies were composed of wild-type female mice and GLUT1-DS male mice, or GLUT1-DS female mice and wild-type male mice. F1 pups were genotyped after ear punching at weaning using PCR to determine genotype. Mice of 2 to 3 months of age were used.
# Motor function was measured in wild-type (WT) and GLUT 1-DS transgenic mice in the rotarod after single administration of Veh. or compound (1) or (2) (10 mg/kg) 20 min before rotarod. Rotarod testing consisted in placing the mouse on an accelerating rotating rod (4 to 40 r.p.m.) during a maximum of 300 seconds. 3 consecutive sessions with 15 min apart were performed. Latency for the mouse to fall from the rod was recorded and the maximal latency over the 3 trials was used as a measure of motor function.
structure (smiles),measurement,setting,value
"COc1cc2ccnc(Nc3ccc(S(C)(=O)=O)cc3)c2cc1OC [Compound 2, 6,7-dimethoxy-N-(4-methylsulfonylphenyl)isoquinolin-1-amine]",mitochondrial activity of neurons (MTT),[1],enhances mitochondrial activity of neurons in astrocyte-neuron co-culture
same,release of lactate,[2],increased
same,extracellular glucose levels in the brain,C57Bl/6J wild-type mice,significantly increases extracellular glucose levels
same,extracellular lactate levels in the brain,C57Bl/6J wild-type mice,significantly increases extracellular lactate levels
same,rotarod performance (latency to fall),GLUT1-DS transgenic mice,increased rotarod performance
